Laboratory results as given in BigSolDB 2.1.

CC(CO)(CO)C(=O)O
solubility (mole fraction)
Settings	in 1,4-dioxane	in MIBK	in cyclopentyl methyl ether	in ethyl acetate	in gamma-butyrolactone	in gamma-valerolactone	in n-butyl acetate
298.15 K	0.00778	0.0149	0.00164	0.00368	0.00637	0.00643	0.00173
303.15 K	0.00937	0.0164	0.00194	0.00388	0.00793	0.008	0.00199
308.15 K	0.0124	0.0172	0.00239	0.00447	0.00942	0.00913	0.00234
313.15 K	0.0147	0.0186	0.00276	0.00507	0.012	0.0107	0.00268
318.15 K	0.0178	0.0192	0.00329	0.00646	0.0148	0.0124	0.00294
323.15 K	0.0219	0.0202	0.00366	0.00745	0.0187	0.0146	0.00381
328.15 K	0.0258	0.022	0.00381	0.00824	0.0214	0.0183	0.00433
333.15 K	0.0334	0.0244	0.00433	0.0124	0.026	0.0218	0.00528
338.15 K	0.0365	0.0259	0.00501	0.0147	0.0315	0.0251	0.00572
343.15 K	0.041	0.0274	0.00598	–	0.0367	0.0305	0.00685
345.15 K	0.0442	–	–	–	0.0392	0.0324	–
348.15 K	0.0479	0.0288	0.00621	–	0.042	0.037	0.00763
350.15 K	0.0501	–	–	–	0.048	0.0386	–
353.15 K	0.0535	0.0296	0.00906	–	0.0529	0.0406	0.00902
